What is called EC50 is the midpoint of the concentration-response curve.

In test [1] the target is human GLP-1 receptor (hGLP-1R) (Homo sapiens, UniProt P43220). Put plainly: cAMP production (HTRF) in CHO cells expressing hGLP-1R. The note with it: for EC50: Table 6, peptides modified at position 17, cAMP in CHO hGLP-1R cells, geometric mean, read-out: hGLP-1R EC50; for % Relative Potency Ratio: Table 6, % GLP-1R activity relative to GLP-1 / % GlucR activity relative to glucagon. It is filed as cell-based. Further details: expressed in transfected cells. The essentials:
(§1)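 Read-out: HTRF cAMP (anti-cAMP cryptate donor, cAMP-d2 acceptor in conjugate/lysis buffer), converted to % Delta F and fitted by 4-parameter logistic for EC50. Cell densities were 1×10^5 cells/mL (hGLP-1R) or 2×10^5 cells/mL (hGCGR). Stimulation lasted 30 min at room temperature.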

Test [2] has as its target human glucagon receptor (hGCGR) (Homo sapiens, UniProt P47871). Put plainly: cAMP production (HTRF) in CHO cells expressing hGCGR. It is filed as cell-based. The arrangement: expressed in transfected cells. The note with it: Table 6, peptides modified at position 17; cAMP in CHO hGCGR cells; geometric mean; read-out: hGluc-R EC50. The essentials:
as §1
For orientation: cAMP levels reflect the balance of adenylyl cyclase and phosphodiesterase activity.

Starred links: 1 amine or outer side, 2 acyl side, 3 side chain; linkers in the order of their positions; H or OH if unused. Non-standard residues stand in square brackets, D forms with d. Residues, ends and D or L forms follow the SMILES beside them. Groups on a side chain read outwards from the residue. *: point of attachment. C20 diacid = O=C(O)CCCCCCCCCCCCCCCCCCC(=O)*; C18 diacid = O=C(O)CCCCCCCCCCCCCCCCC(=O)*; γGlu = O=C(O)[C@H](CCC(=O)[*:2])N[*:1]; αMeF = C[C@](N)(Cc1ccccc1)C(=O)O; AEEA = NCCOCCOCC(=O)O; Aib = CC(C)(N)C(=O)O

Sequence of human GLP-1 receptor (hGLP-1R) (P43220 24-463): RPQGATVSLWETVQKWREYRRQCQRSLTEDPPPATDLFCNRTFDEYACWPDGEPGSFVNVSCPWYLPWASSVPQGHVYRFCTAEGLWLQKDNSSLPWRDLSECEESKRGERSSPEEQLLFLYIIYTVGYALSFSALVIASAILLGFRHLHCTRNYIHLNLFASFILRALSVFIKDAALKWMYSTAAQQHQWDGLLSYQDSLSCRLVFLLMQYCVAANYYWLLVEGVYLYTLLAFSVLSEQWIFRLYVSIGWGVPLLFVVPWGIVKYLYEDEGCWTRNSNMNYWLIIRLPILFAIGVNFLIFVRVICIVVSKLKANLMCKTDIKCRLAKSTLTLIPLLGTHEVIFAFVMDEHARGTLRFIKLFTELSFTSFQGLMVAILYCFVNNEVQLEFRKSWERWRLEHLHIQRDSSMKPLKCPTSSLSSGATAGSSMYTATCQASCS
Sequence of human glucagon receptor (hGCGR) (P47871 26-477): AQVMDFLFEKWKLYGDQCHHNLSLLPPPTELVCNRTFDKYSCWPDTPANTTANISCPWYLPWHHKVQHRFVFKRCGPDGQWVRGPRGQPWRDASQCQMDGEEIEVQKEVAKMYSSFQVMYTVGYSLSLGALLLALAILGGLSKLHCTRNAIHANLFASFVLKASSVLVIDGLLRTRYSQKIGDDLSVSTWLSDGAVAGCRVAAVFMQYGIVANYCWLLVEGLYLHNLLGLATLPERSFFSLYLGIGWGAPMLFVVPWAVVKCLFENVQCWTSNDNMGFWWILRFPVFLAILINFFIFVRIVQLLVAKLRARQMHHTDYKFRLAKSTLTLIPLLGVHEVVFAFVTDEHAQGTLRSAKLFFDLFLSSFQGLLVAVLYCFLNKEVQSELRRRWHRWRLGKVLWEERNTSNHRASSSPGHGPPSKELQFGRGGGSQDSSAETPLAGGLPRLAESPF

Turning to `CC(C)C[C@H](NC(=O)[C@H](CC(C)C)NC(=O)[C@H](Cc1c[nH]c2ccccc12)NC(=O)[C@H](CCC(N)=O)NC(=O)[C@@H](NC(=O)[C@H](Cc1ccccc1)NC(=O)[C@H](CC(=O)O)NC(=O)[C@H](CCCNC(=N)N)NC(=O)[C@H](C)NC(=O)[C@H](CCCNC(=N)N)NC(=O)[C@H](CCCCNC(=O)COCCOCCNC(=O)COCCOCCNC(=O)CC[C@H](NC(=O)CCCCCCCCCCCCCCCCCCC(=O)O)C(=O)O)NC(=O)[C@@H](NC(=O)[C@H](CC(=O)O)NC(=O)[C@H](CC(C)C)NC(=O)[C@](C)(Cc1ccccc1)NC(=O)[C@H](CCCCN)NC(=O)[C@H](CO)NC(=O)[C@@H](NC(=O)[C@H](CC(=O)O)NC(=O)[C@H](CO)NC(=O)[C@@H](NC(=O)[C@H](Cc1ccccc1)NC(=O)[C@@H](NC(=O)CNC(=O)[C@H](CCC(N)=O)NC(=O)C(C)(C)NC(=O)[C@@H](N)Cc1c[nH]cn1)[C@@H](C)O)[C@@H](C)O)C(C)C)[C@@H](C)O)C(C)C)C(=O)N[C@@H](C)C(=O)NC(C)(C)C(=O)NCC(N)=O` [Peptide 475] (H-H[Aib]QGTFTSDVSK[αMeF]LDTK([AEEA-AEEA-γGlu-C20 diacid])RARDFVQWLLA[Aib]G-NH2), in test [1], the EC50 stood at 0.00675 nM and the “% Relative Potency Ratio” value is 18.0. Further, in test [2], the EC50 came to 0.0615 nM.
`CC(C)C[C@H](NC(=O)[C@H](CC(C)C)NC(=O)[C@H](Cc1c[nH]c2ccccc12)NC(=O)[C@H](CCCNC(=N)N)NC(=O)[C@@H](NC(=O)[C@H](Cc1ccccc1)NC(=O)[C@H](CC(=O)O)NC(=O)[C@H](CCC(N)=O)NC(=O)[C@H](C)NC(=O)[C@H](CCCNC(=N)N)NC(=O)[C@H](CCCCNC(=O)COCCOCCNC(=O)COCCOCCNC(=O)CC[C@H](NC(=O)CCCCCCCCCCCCCCCCC(=O)O)C(=O)O)NC(=O)[C@@H](NC(=O)[C@H](CC(=O)O)NC(=O)[C@H](CC(C)C)NC(=O)[C@](C)(Cc1ccccc1)NC(=O)[C@H](CCCCN)NC(=O)[C@H](CO)NC(=O)[C@@H](NC(=O)[C@H](CC(=O)O)NC(=O)[C@H](CO)NC(=O)[C@@H](NC(=O)[C@H](Cc1ccccc1)NC(=O)[C@@H](NC(=O)CNC(=O)[C@H](CCC(N)=O)NC(=O)C(C)(C)NC(=O)[C@@H](N)Cc1c[nH]cn1)[C@@H](C)O)[C@@H](C)O)C(C)C)[C@@H](C)O)C(C)C)C(=O)N[C@@H](C)C(=O)NC(C)(C)C(=O)NCC(N)=O` [Peptide 476] (H-H[Aib]QGTFTSDVSK[αMeF]LDTK([AEEA-AEEA-γGlu-C18 diacid])RAQDFVRWLLA[Aib]G-NH2): in test [1], the EC50 was 0.0573 nM and the “% Relative Potency Ratio” value came out at 3.6. In addition, the EC50 in test [2] is 0.104 nM.
In the case of `CC(C)C[C@H](NC(=O)[C@H](Cc1c[nH]c2ccccc12)NC(=O)[C@H](CCCNC(=N)N)NC(=O)[C@@H](NC(=O)[C@H](Cc1ccccc1)NC(=O)[C@H](CC(=O)O)NC(=O)[C@H](CCC(N)=O)NC(=O)[C@H](C)NC(=O)[C@H](CCCNC(=N)N)NC(=O)[C@H](CCCCNC(=O)COCCOCCNC(=O)COCCOCCNC(=O)CC[C@H](NC(=O)CCCCCCCCCCCCCCCCC(=O)O)C(=O)O)NC(=O)[C@@H](NC(=O)[C@H](CC(=O)O)NC(=O)[C@H](CC(C)C)NC(=O)[C@](C)(Cc1ccccc1)NC(=O)[C@H](CCCCN)NC(=O)[C@H](CO)NC(=O)[C@@H](NC(=O)[C@H](CC(=O)O)NC(=O)[C@H](CO)NC(=O)[C@@H](NC(=O)[C@H](Cc1ccccc1)NC(=O)[C@@H](NC(=O)CNC(=O)[C@H](CCC(N)=O)NC(=O)C(C)(C)NC(=O)[C@@H](N)Cc1c[nH]cn1)[C@@H](C)O)[C@@H](C)O)C(C)C)[C@@H](C)O)C(C)C)C(=O)N[C@@H](CC(C)C)C(=O)N[C@@H](CCC(=O)O)C(=O)NC(C)(C)C(=O)N[C@@H](CCCCN)C(N)=O` [Peptide 478] (H-H[Aib]QGTFTSDVSK[αMeF]LDTK([AEEA-AEEA-γGlu-C18 diacid])RAQDFVRWLLE[Aib]K-NH2), the EC50 in test [1] came out at 0.00918 nM; in test [2], 0.19 nM. Moreover, the “% Relative Potency Ratio” value in test [1] worked out at 40.9.
Take `CC(C)C[C@H](NC(=O)[C@H](Cc1c[nH]c2ccccc12)NC(=O)[C@H](CCCNC(=N)N)NC(=O)[C@@H](NC(=O)[C@H](Cc1ccccc1)NC(=O)[C@H](CC(=O)O)NC(=O)[C@H](CCC(N)=O)NC(=O)[C@H](C)NC(=O)[C@H](CCCNC(=N)N)NC(=O)[C@H](CCCCNC(=O)COCCOCCNC(=O)COCCOCCNC(=O)CC[C@H](NC(=O)CCCCCCCCCCCCCCCCCCC(=O)O)C(=O)O)NC(=O)[C@@H](NC(=O)[C@H](CC(=O)O)NC(=O)[C@H](CC(C)C)NC(=O)[C@](C)(Cc1ccccc1)NC(=O)[C@H](CCCCN)NC(=O)[C@H](CO)NC(=O)[C@@H](NC(=O)[C@H](CC(=O)O)NC(=O)[C@H](CO)NC(=O)[C@@H](NC(=O)[C@H](Cc1ccccc1)NC(=O)[C@@H](NC(=O)CNC(=O)[C@H](CCC(N)=O)NC(=O)C(C)(C)NC(=O)[C@@H](N)Cc1c[nH]cn1)[C@@H](C)O)[C@@H](C)O)C(C)C)[C@@H](C)O)C(C)C)C(=O)N[C@@H](CC(C)C)C(=O)N[C@@H](CCC(=O)O)C(=O)NC(C)(C)C(=O)N[C@@H](CCCCN)C(N)=O` [Peptide 479] (H-H[Aib]QGTFTSDVSK[αMeF]LDTK([AEEA-AEEA-γGlu-C20 diacid])RAQDFVRWLLE[Aib]K-NH2; N-terminus assumed): in test [1], the EC50 was found to be 0.0342 nM and the “% Relative Potency Ratio” value was 12.0. In test [2], the EC50 worked out at 0.207 nM.
As to `CC(C)C[C@H](NC(=O)[C@H](Cc1c[nH]c2ccccc12)NC(=O)[C@H](CCC(N)=O)NC(=O)[C@@H](NC(=O)[C@H](Cc1ccccc1)NC(=O)[C@H](CC(=O)O)NC(=O)[C@H](CCCNC(=N)N)NC(=O)[C@H](C)NC(=O)[C@H](CCCNC(=N)N)NC(=O)[C@H](CCCCNC(=O)COCCOCCNC(=O)COCCOCCNC(=O)CC[C@H](NC(=O)CCCCCCCCCCCCCCCCC(=O)O)C(=O)O)NC(=O)[C@@H](NC(=O)[C@H](CC(=O)O)NC(=O)[C@H](CC(C)C)NC(=O)[C@](C)(Cc1ccccc1)NC(=O)[C@H](CCCCN)NC(=O)[C@H](CO)NC(=O)[C@@H](NC(=O)[C@H](CC(=O)O)NC(=O)[C@H](CO)NC(=O)[C@@H](NC(=O)[C@H](Cc1ccccc1)NC(=O)[C@@H](NC(=O)CNC(=O)[C@H](CCC(N)=O)NC(=O)C(C)(C)NC(=O)[C@@H](N)Cc1c[nH]cn1)[C@@H](C)O)[C@@H](C)O)C(C)C)[C@@H](C)O)C(C)C)C(=O)N[C@@H](CC(C)C)C(=O)N[C@@H](CCC(=O)O)C(=O)NC(C)(C)C(=O)N[C@@H](CCCCN)C(N)=O` [Peptide 480] (H-H[Aib]QGTFTSDVSK[αMeF]LDTK([AEEA-AEEA-γGlu-C18 diacid])RARDFVQWLLE[Aib]K-NH2; N-terminus assumed), in test [1], the EC50 stood at 0.0126 nM and the “% Relative Potency Ratio” value came to 21.4. Further, the EC50 in test [2] was found to be 0.136 nM.
For `CC(C)C[C@H](NC(=O)[C@H](Cc1c[nH]c2ccccc12)NC(=O)[C@H](CCC(N)=O)NC(=O)[C@@H](NC(=O)[C@H](Cc1ccccc1)NC(=O)[C@H](CC(=O)O)NC(=O)[C@H](CCCNC(=N)N)NC(=O)[C@H](C)NC(=O)[C@H](CCCNC(=N)N)NC(=O)[C@H](CCCCNC(=O)COCCOCCNC(=O)COCCOCCNC(=O)CC[C@H](NC(=O)CCCCCCCCCCCCCCCCCCC(=O)O)C(=O)O)NC(=O)[C@@H](NC(=O)[C@H](CC(=O)O)NC(=O)[C@H](CC(C)C)NC(=O)[C@](C)(Cc1ccccc1)NC(=O)[C@H](CCCCN)NC(=O)[C@H](CO)NC(=O)[C@@H](NC(=O)[C@H](CC(=O)O)NC(=O)[C@H](CO)NC(=O)[C@@H](NC(=O)[C@H](Cc1ccccc1)NC(=O)[C@@H](NC(=O)CNC(=O)[C@H](CCC(N)=O)NC(=O)C(C)(C)NC(=O)[C@@H](N)Cc1c[nH]cn1)[C@@H](C)O)[C@@H](C)O)C(C)C)[C@@H](C)O)C(C)C)C(=O)N[C@@H](CC(C)C)C(=O)N[C@@H](CCC(=O)O)C(=O)NC(C)(C)C(=O)N[C@@H](CCCCN)C(N)=O` [Peptide 481] (H-H[Aib]QGTFTSDVSK[αMeF]LDTK([AEEA-AEEA-γGlu-C20 diacid])RARDFVQWLLE[Aib]K-NH2; N-terminus assumed) the same measures were 0.0522 nM, 13.3 and 0.35 nM.
Take `CC(C)C[C@H](NC(=O)[C@H](Cc1c[nH]c2ccccc12)NC(=O)[C@H](CCC(N)=O)NC(=O)[C@@H](NC(=O)[C@H](Cc1ccccc1)NC(=O)[C@H](CC(=O)O)NC(=O)[C@H](CCC(N)=O)NC(=O)[C@H](C)NC(=O)[C@H](CCCNC(=N)N)NC(=O)[C@H](CCCCNC(=O)COCCOCCNC(=O)COCCOCCNC(=O)CC[C@H](NC(=O)CCCCCCCCCCCCCCCCC(=O)O)C(=O)O)NC(=O)[C@H](CO)NC(=O)[C@H](CCC(=O)O)NC(=O)[C@H](CC(C)C)NC(=O)[C@](C)(Cc1ccccc1)NC(=O)[C@H](CCCCN)NC(=O)[C@H](CO)NC(=O)[C@@H](NC(=O)[C@H](CC(=O)O)NC(=O)[C@H](CO)NC(=O)[C@@H](NC(=O)[C@H](Cc1ccccc1)NC(=O)[C@@H](NC(=O)CNC(=O)[C@H](CCC(N)=O)NC(=O)C(C)(C)NC(=O)[C@@H](N)Cc1c[nH]cn1)[C@@H](C)O)[C@@H](C)O)C(C)C)C(C)C)C(=O)N[C@@H](CC(C)C)C(=O)NC(C)(C)C(=O)N[C@@H](CCC(=O)O)C(=O)O` [Peptide 482] (H-H[Aib]QGTFTSDVSK[αMeF]LESK([AEEA-AEEA-γGlu-C18 diacid])RAQDFVQWLL[Aib]E-OH; N-terminus assumed): in test [1], the EC50 came out at 0.19 nM and the “% Relative Potency Ratio” value was determined as 7.2. Moreover, the EC50 in test [2] is 0.691 nM.
